Assay results published in paper PMC12566046, “Arylpiperazinyl-Benzocycloheptapyrrole-Carboxamides Endowed with Dual Anticancer and Antiviral Activities” (Molecules, 2025).

Experiments:
[1] = test system: IAV strain A/PR/8/34 (H1N1); conditions: preliminary screening
[2] = test system: NCI-60 cell line panel; assay: NCI-60 single-dose assay, whole panel; type: cell-based, human; conditions: summary over the panel
Procedure, shortened: (§1)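 Single-dose cytotoxicity test run in the NCI-60 panel of human cancer cell lines. Threshold inhibition criteria across a minimum number of lines decided progression to five-dose testing.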

[3] = test system: CCRF-CEM (leukemia cell line); assay: NCI-60 single-dose assay; type: cell-based, human; conditions: Homo sapiens, read-out: growth inhibition (GI%) and cytotoxicity (negative values)
Procedure, shortened: as §1

[4] = test system: RPMI-8226 (leukemia cell line); assay: NCI-60 single-dose assay; type: cell-based, human; conditions: Homo sapiens, RPMI-8226, read-out: growth inhibition (GI%) and cytotoxicity (negative values)
Procedure, shortened: as §1

[5] = test system: BT-549 (breast cancer cell line); assay: NCI-60 single-dose assay; type: cell-based, human; conditions: Homo sapiens, BT-549, read-out: growth inhibition (GI%) and cytotoxicity (negative values)
Procedure, shortened: as §1

[6] = test system: NCI-H226 (non-small cell lung cancer cell line); assay: NCI-60 single-dose assay; type: cell-based, human; conditions: Homo sapiens, NCI-H226, read-out: growth inhibition (GI%) and cytotoxicity (negative values)
Procedure, shortened: as §1

[7] = test system: T-47D (breast cancer cell line); assay: NCI-60 single-dose assay; type: cell-based, human; conditions: Homo sapiens, T47D, read-out: growth inhibition (GI%) and cytotoxicity (negative values)
Procedure, shortened: as §1

[8] = test system: M14 (melanoma cell line); assay: NCI-60 single-dose assay; type: cell-based, human; conditions: human
Procedure, shortened: as §1

[9] = test system: CAKI-1 (renal cancer cell line); assay: NCI-60 single-dose assay; type: cell-based, human; conditions: for inhibition at 10 µM: Homo sapiens, CAKI-1, read-out: growth inhibition (GI%) and cytotoxicity (negative values)
Procedure, shortened: as §1

[10] = test system: UACC-257 (melanoma cell line); assay: NCI-60 single-dose assay; type: cell-based, human; conditions: for growth inhibition (GI%) and cytotoxicity (negative values): human
Procedure, shortened: as §1

[11] = test system: SK-MEL-28 (melanoma cell line); assay: NCI-60 single-dose assay; type: cell-based, human; conditions: for growth inhibition (GI%) and cytotoxicity (negative values): human
Procedure, shortened: as §1

[12] = test system: RXF 393 (renal cancer cell line); assay: NCI-60 single-dose assay; type: cell-based, human; conditions: for inhibition at 10 µM: Homo sapiens, RXF 393, read-out: growth inhibition (GI%) and cytotoxicity (negative values)
Procedure, shortened: as §1

[13] = test system: SK-MEL-2 (melanoma cell line); assay: NCI-60 single-dose assay; type: cell-based, human; conditions: Homo sapiens, SK-MEL-2, read-out: growth inhibition (GI%) and cytotoxicity (negative values)
Procedure, shortened: as §1

[14] = test system: HT29 (colon cancer cell line); assay: NCI-60 single-dose assay; type: cell-based, human; conditions: human
Procedure, shortened: as §1

[15] = test system: EKVX (non-small cell lung cancer cell line); assay: NCI-60 single-dose assay; type: cell-based, human; conditions: Homo sapiens, read-out: growth inhibition (GI%) and cytotoxicity (negative values)
Procedure, shortened: as §1

[16] = test system: MALME-3M (melanoma cell line); assay: NCI-60 single-dose assay; type: cell-based, human; conditions: for growth inhibition (GI%) and cytotoxicity (negative values): human
Procedure, shortened: as §1

[17] = test system: LOX IMVI (melanoma cell line); assay: NCI-60 single-dose assay; type: cell-based, human; conditions: for inhibition at 10 µM: Homo sapiens, LOX IMVI, read-out: growth inhibition (GI%) and cytotoxicity (negative values)
Procedure, shortened: as §1

[18] = test system: 786-0 (renal cancer cell line); assay: NCI-60 single-dose assay; type: cell-based, human; conditions: for inhibition at 10 µM: Homo sapiens, 786-0, read-out: growth inhibition (GI%) and cytotoxicity (negative values)
Procedure, shortened: as §1

[19] = test system: NCI-H460 (non-small cell lung cancer cell line); assay: NCI-60 single-dose assay; type: cell-based, human; conditions: for inhibition at 10 µM: Homo sapiens, NCI-H460, read-out: growth inhibition (GI%) and cytotoxicity (negative values)
Procedure, shortened: as §1

[20] = test system: MDA-MB-468 (breast cancer cell line); assay: NCI-60 single-dose assay; type: cell-based, human; conditions: human
Procedure, shortened: as §1

[21] = test system: MCF-7 (breast cancer cell line); assay: NCI-60 single-dose assay; type: cell-based, human; conditions: Homo sapiens, MCF7, read-out: growth inhibition (GI%) and cytotoxicity (negative values), MCF-7, 10^−5 M
Procedure, shortened: as §1

[22] = test system: KM12 (colon cancer cell line); assay: NCI-60 single-dose assay; type: cell-based, human; conditions: Homo sapiens, KM12, read-out: growth inhibition (GI%) and cytotoxicity (negative values)
Procedure, shortened: as §1

[23] = test system: MOLT-4 (leukemia cell line); assay: NCI-60 single-dose assay; type: cell-based, human; conditions: Homo sapiens, MOLT-4, read-out: growth inhibition (GI%) and cytotoxicity (negative values)
Procedure, shortened: as §1

[24] = test system: HCC-2998 (colon cancer cell line); assay: NCI-60 single-dose assay; type: cell-based, human; conditions: for growth inhibition (GI%) and cytotoxicity (negative values): human
Procedure, shortened: as §1

[25] = test system: NCI-H522 (non-small cell lung cancer cell line); assay: NCI-60 single-dose assay; type: cell-based, human; conditions: Homo sapiens, NCI-H522, read-out: growth inhibition (GI%) and cytotoxicity (negative values)
Procedure, shortened: as §1

[26] = test system: MDA-MB-231/ATCC (breast cancer cell line); assay: NCI-60 single-dose assay; type: cell-based, human; conditions: Homo sapiens, MDA-MB-231, read-out: growth inhibition (GI%) and cytotoxicity (negative values)
Procedure, shortened: as §1

[27] = test system: HL-60(TB) (leukemia cell line); assay: NCI-60 single-dose assay; type: cell-based, human; conditions: human
[28] = test system: NCI-H23 (non-small cell lung cancer cell line); assay: NCI-60 single-dose assay; type: cell-based, human; conditions: Homo sapiens, NCI-H23, read-out: growth inhibition (GI%) and cytotoxicity (negative values)
Procedure, shortened: as §1

[29] = test system: SR (leukemia cell line); assay: NCI-60 single-dose assay; type: cell-based, human; conditions: for inhibition at 10 µM: Homo sapiens, read-out: growth inhibition (GI%) and cytotoxicity (negative values)
Procedure, shortened: as §1

[30] = test system: SN12C (renal cancer cell line); assay: NCI-60 single-dose assay; type: cell-based, human; conditions: Homo sapiens, read-out: growth inhibition (GI%) and cytotoxicity (negative values)
Procedure, shortened: as §1

[31] = test system: HCT-116 (colon cancer cell line); assay: NCI-60 single-dose assay; type: cell-based, human; conditions: for inhibition at 10 µM: Homo sapiens, HCT-116, read-out: growth inhibition (GI%) and cytotoxicity (negative values)
Procedure, shortened: as §1

[32] = test system: COLO 205 (colon cancer cell line); assay: NCI-60 single-dose assay; type: cell-based, human; conditions: human
Procedure, shortened: as §1

[33] = test system: MDA-MB-435 (melanoma cell line); assay: NCI-60 single-dose assay; type: cell-based, human; conditions: for inhibition at 10 µM: Homo sapiens, MDA-MB-435, read-out: growth inhibition (GI%) and cytotoxicity (negative values)
Procedure, shortened: as §1

[34] = test system: UACC-62 (melanoma cell line); assay: NCI-60 single-dose assay; type: cell-based, human; conditions: for inhibition at 10 µM: Homo sapiens, UACC-62, read-out: growth inhibition (GI%) and cytotoxicity (negative values)
Procedure, shortened: as §1

[35] = test system: SW-620 (colon cancer cell line); assay: NCI-60 single-dose assay; type: cell-based, human; conditions: for inhibition at 10 µM: Homo sapiens, SW-620, read-out: growth inhibition (GI%) and cytotoxicity (negative values)
Procedure, shortened: as §1

[36] = test system: UO-31 (renal cancer cell line); assay: NCI-60 single-dose assay; type: cell-based, human; conditions: Homo sapiens, UO-31, read-out: growth inhibition (GI%) and cytotoxicity (negative values)
Procedure, shortened: as §1

[37] = test system: HCT-15 (colon cancer cell line); assay: NCI-60 single-dose assay; type: cell-based, human; conditions: for inhibition at 10 µM: Homo sapiens, HCT-15, read-out: growth inhibition (GI%) and cytotoxicity (negative values)
Procedure, shortened: as §1

Row | SMILES | growth inhibition (GI%) reached against cancer cell lines of the NCI-60 panel [2] | inhibition at 10 µM [3] | inhibition at 10 µM [4] | inhibition at 10 µM [5] | inhibition at 10 µM [6] | inhibition at 10 µM [7] | growth inhibition (GI%) and cytotoxicity (negative values) [8] | growth inhibition (GI%) and cytotoxicity (negative values) [10] | growth inhibition (GI%) and cytotoxicity (negative values) [11] | inhibition at 10 µM [13] | growth inhibition (GI%) and cytotoxicity (negative values) [14] | inhibition at 10 µM [15] | inhibition at 10 µM [22] | inhibition at 10 µM [23] | inhibition at 10 µM [25] | growth inhibition (GI%) and cytotoxicity (negative values) [27] | inhibition at 10 µM [28] | inhibition at 10 µM [30] | growth inhibition (GI%) and cytotoxicity (negative values) [32] | inhibition at 10 µM [36] | also measured
1 | CCN1CCC[C@H]1CNC(=O)c1[nH]c2c(c1Cl)CCCc1ccccc1-2 [Compound 1, (S)-3-Chloro-N-(1-ethyl-2-pyrrolidinylmethyl)-5,6-dihydro-4H-benzo[6,7]cyclohepta[1,2-b]pyrrol-2-carboxamide] | > 90% | 75.5% | 98.6% | 62.9% | < 60% | 66.2% | −68.50% | −55.18% | −85.77% | 85.8% | −32.25% | 68.8% | 83.8% | 96.2% | 73.5% | −38.55% | < 60% | < 60% | −52.22% | 83% | IAV/MDCK SI [1]: 0.10; growth inhibition (GI%) and cytotoxicity (negative values) ([9]; human): −27.03%; inhibition at 10 µM [12]: 79.7%; growth inhibition (GI%) and cytotoxicity (negative values) [16]: −90.67%; growth inhibition (GI%) and cytotoxicity (negative values) ([17]; human): −25.00%; growth inhibition (GI%) and cytotoxicity (negative values) ([18]; human): −22.61%; growth inhibition (GI%) and cytotoxicity (negative values) ([19]; human): −54.58%; growth inhibition (GI%) and cytotoxicity (negative values) [20]: −3.75%; inhibition at 10 µM [21]: 87.2%; growth inhibition (GI%) and cytotoxicity (negative values) [24]: −21.01%; inhibition at 10 µM [26]: 89%; inhibition at 10 µM [29]: 96.3%; growth inhibition (GI%) and cytotoxicity (negative values) ([31]; human): −25.27%; growth inhibition (GI%) and cytotoxicity (negative values) ([33]; human): −78.15%; growth inhibition (GI%) and cytotoxicity (negative values) ([34]; human): −73.43%; growth inhibition (GI%) and cytotoxicity (negative values) ([35]; human): −30.78%; growth inhibition (GI%) and cytotoxicity (negative values) ([37]; human): −52.66%
2 | COc1ccccc1N1CCN(CCNC(=O)c2[nH]c3c(c2Cl)CCCc2ccccc2-3)CC1 [Compound 5] | > 90% | 71.6% | < 60% | – | < 60% | – | −22.16% | – | – | < 60% | −17.44% | 94.2% | 67.7% | 93% | 85.5% | −8.91% | 62.2% | 71.8% | −48.74% | 70% | inhibition at 10 µM [9]: 77.9%; inhibition at 10 µM ([10]; Homo sapiens, UACC-257, read-out: growth inhibition (GI%) and cytotoxicity (negative values)): < 60%; inhibition at 10 µM ([11]; Homo sapiens, SK-MEL-28, read-out: growth inhibition (GI%) and cytotoxicity (negative values)): < 60%; inhibition at 10 µM [12]: 89.4%; inhibition at 10 µM ([16]; Homo sapiens, Malme-3M, read-out: growth inhibition (GI%) and cytotoxicity (negative values)): < 60%; inhibition at 10 µM [17]: 82.8%; inhibition at 10 µM [18]: 63%; inhibition at 10 µM [19]: 79.2%; inhibition at 10 µM ([24]; Homo sapiens, HCC 2998, read-out: growth inhibition (GI%) and cytotoxicity (negative values)): < 60%; inhibition at 10 µM [29]: 90.1%; inhibition at 10 µM [31]: 94.6%; inhibition at 10 µM [33]: 61.8%; inhibition at 10 µM [34]: < 60%; inhibition at 10 µM [35]: 67.4%; inhibition at 10 µM [37]: 92.5%
3 | O=C(NCCCN1CCN(c2ccccc2)CC1)c1cc2c([nH]1)-c1ccccc1CCC2 [Compound 10, N-(3-(4-Phenylpiperazin-1-yl)propyl)-1,4,5,6-tetrahydrobenzo[6,7]cyclohepta[1,2-b]pyrrole-2-carboxamide] | > 90% | 61.2% | < 60% | < 60% | 75.2% | 65.8% | −59.25% | −8.50% | −29.31% | 75% | −2.47% | 74.2% | 73.7% | < 60% | 71.4% | −30.92% | < 60% | < 60% | −58.03% | < 60% | inhibition at 10 µM [9]: 89.4%; growth inhibition (GI%) and cytotoxicity (negative values) ([12]; human): −8.69%; growth inhibition (GI%) and cytotoxicity (negative values) [16]: −72.64%; inhibition at 10 µM [17]: 95.2%; inhibition at 10 µM [18]: 68.7%; inhibition at 10 µM [19]: 90.7%; growth inhibition (GI%) and cytotoxicity (negative values) [20]: −13.75%; inhibition at 10 µM [21]: 80.2%; growth inhibition (GI%) and cytotoxicity (negative values) [24]: −9.32%; inhibition at 10 µM [26]: < 60%; growth inhibition (GI%) and cytotoxicity (negative values) ([29]; human): −19.75%; inhibition at 10 µM [31]: 95.7%; inhibition at 10 µM [33]: 75.1%; inhibition at 10 µM [34]: < 60%; inhibition at 10 µM [35]: 80.1%; inhibition at 10 µM [37]: 91.2%
